The target in one test is T1, S100A4 (Homo sapiens, UniProt P26447).
T1 construct: human S100A4 (R&D Systems)
The test can be described thus: SPR direct binding to amine-coupled S100A4; SPR inhibition of S100A4 binding to immobilized RAGE (IC50 […], Figure 5C).

Another test concerns the target T2, S100A9 (Homo sapiens, UniProt P06702).
T2 construct: recombinant human S100A9 (produced in E. coli)
T2 sequence (P06702 1-114): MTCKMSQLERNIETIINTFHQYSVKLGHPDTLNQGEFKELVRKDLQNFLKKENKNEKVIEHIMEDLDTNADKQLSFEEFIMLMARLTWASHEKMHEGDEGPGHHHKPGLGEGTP
Nature of the test: SPR direct binding to amine-coupled S100A9; SPR inhibition of S100A9 binding to immobilized RAGE (IC50 […]) and TLR4 ([…]).

pIC50: −log10 of the molar value.

T1 sequence (P26447 2-101): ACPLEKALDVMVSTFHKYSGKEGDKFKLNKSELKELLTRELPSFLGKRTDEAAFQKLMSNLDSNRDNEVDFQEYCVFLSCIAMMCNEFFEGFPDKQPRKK

As to `O=C(Nc1cc(Cl)cc(Cl)c1O)c1c(O)c(Cl)cc(Cl)c1Cl` [OX, Oxyclozanide], the figures for the negative logarithm of the IC50 (pIC50) on S100A4 and at S100A9 were 4.28 and roughly 5.89, respectively.

Source of the values: paper PMC3648463, “Common Interactions between S100A4 and S100A9 Defined by a Novel Chemical Probe” (PLoS ONE, 2013).
